Measurements taken from patent EP4692114A1, “CALCITONIN ANALOGUE, AND DERIVATIVE THEREOF AND USE THEREOF” (Hangzhou Sciwind Biosciences Co., Ltd., priority 2023, dated 2024).
pEC50: −log10 of the molar value. *1 amine or outer side, *2 acyl side, *3 side chain or, on linkers, in order; H or OH if unused. Where a SMILES comes first, the peptide text is derived from it. The star is where a group is joined. C20 diacid = O=C(O)CCCCCCCCCCCCCCCCCCC(=O)*; γGlu = O=C(O)[C@H](CCC(=O)[*:2])N[*:1]

Experiments:
[1] = Study of weight change and food consumption in rats; format: in vivo, SD (Sprague Dawley) rats; conditions: SD rats, subcutaneous, 10 nmol/kg; for Effect on reducing food intake: accumulated food intake recorded every 24 hours (FIGs. 7 and 9); for Effect on reducing body weight: recorded every 24 hours (FIGs. 6 and 8)
From the text: SD (Sprague Dawley) rats weighing 200-250 g were used for this study. The rats were received at least 10-14 days before the study began such that they could accommodate to the experimental environment. After arrival, they were exposed to a reversed light/dark cycle (i.e., lights switched off in daytime and on in nighttime) for two weeks and were individually housed for the first week so as to ensure high data accuracy and test sensitivity. Throughout the acclimation and experiment period, the rats had free access to food and water. 5-8 rats were assigned to each testing group for the derivatives and were subcutaneously administered the derivatives at a dose of 10 nmol/kg or a vehicle, and the dosing timepoint was recorded for each group. After dosing, the rats were put back into cages where they were housed and could have access to food and water. Food consumption and weight change of the rats were recorded online or manually every 24 hours.

human amylin receptors = target: T1, human amylin receptors (Homo sapiens, UniProt O60896+P30988); assay: Luciferase assay of amylin (amylin receptor/CRE-luc cell line); format: cell-based; conditions: stably transfected amylin receptor/CRE-luc CHO cells (CHO-K1/Gal5/AMY3), 24 hours incubation, luciferase readout;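 further: agonist potency from luminescence of cAMP response element-driven luciferase, EC50 derived from a standard curve of signal versus compound concentration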
T1 sequence (P30988 25-474): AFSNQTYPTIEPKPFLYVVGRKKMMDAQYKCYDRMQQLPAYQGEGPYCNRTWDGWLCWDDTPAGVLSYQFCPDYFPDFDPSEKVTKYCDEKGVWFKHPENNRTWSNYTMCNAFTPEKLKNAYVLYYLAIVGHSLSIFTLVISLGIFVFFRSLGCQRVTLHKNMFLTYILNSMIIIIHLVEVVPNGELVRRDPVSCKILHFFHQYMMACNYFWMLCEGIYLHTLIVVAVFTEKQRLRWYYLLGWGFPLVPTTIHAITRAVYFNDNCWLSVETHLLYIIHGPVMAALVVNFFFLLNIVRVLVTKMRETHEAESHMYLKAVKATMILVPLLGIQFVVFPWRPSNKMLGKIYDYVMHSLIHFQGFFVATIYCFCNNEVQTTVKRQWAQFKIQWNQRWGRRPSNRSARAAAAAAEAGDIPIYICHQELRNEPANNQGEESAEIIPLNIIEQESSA
T1 sequence (O60896 24-148 partner): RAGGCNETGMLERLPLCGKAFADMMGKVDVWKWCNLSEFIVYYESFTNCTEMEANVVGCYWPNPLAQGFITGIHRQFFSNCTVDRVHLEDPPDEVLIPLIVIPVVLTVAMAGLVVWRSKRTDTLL

[2] = Heat accelerated stability assay under a neutral condition; format: physicochemical; conditions: pH about 7.4, 40°C; for Changes in characteristics or properties, 0d / Changes in characteristics or properties, 7d / Characteristics or properties on Day 26: 1 mg/mL, phosphate; for Concentration change (7d-0d)/%: Day 7 vs Day 0, reversed phase chromatography; for Purity Change% (7d-0d): purity from reversed phase chromatography-214 nm, Day 7 vs Day 0
Outline: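 Peptide (1 mg/mL) with sodium dihydrogen phosphate (1.42 mg/mL) in water, pH ~7.4, was sterile-filtered and stored at 40 °C, sampled on days 7 and 26. After centrifugation, concentration and purity (target/total peak area) were measured by reversed-phase HPLC at 214 and 280 nm, water/0.05% TFA to acetonitrile gradient, 25 °C column.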

CC(C)C[C@H](NC(=O)[C@H](CCCNC(=N)N)NC(=O)CNC(=O)[C@H](CC(C)C)NC(=O)[C@@H](NC(=O)[C@H](C)NC(=O)[C@@H](NC(=O)[C@H](CO)NC(=O)[C@H](CC(C)C)NC(=O)[C@H](CCC(N)=O)NC(=O)[C@H](CO)NC(=O)[C@H](C)NC(=O)CC[C@H](NC(=O)CCCCCCCCCCCCCCCCCCC(=O)O)C(=O)O)[C@@H](C)O)C(C)C)C(=O)N[C@@H](CO)C(=O)N[C@@H](CCC(N)=O)C(=O)N[C@@H](CCC(=O)O)C(=O)N[C@@H](CC(C)C)C(=O)N[C@@H](Cc1c[nH]cn1)C(=O)N[C@@H](CCCNC(=N)N)C(=O)N[C@@H](CC(C)C)C(=O)N[C@@H](CCC(N)=O)C(=O)N[C@@H](CC(=O)O)C(=O)N[C@@H](Cc1ccc(O)cc1)C(=O)N1CCC[C@H]1C(=O)N[C@@H](CCCNC(=N)N)C(=O)N[C@H](C(=O)N[C@@H](CC(=O)O)C(=O)N[C@H](C(=O)NCC(=O)N[C@@H](C)C(=O)NCC(=O)N[C@@H](CO)C(=O)N1CCC[C@H]1C(N)=O)C(C)C)[C@@H](C)O [M19] ({C20 diacid-γGlu}-ASQLSTAVLGRLSQELHRLQDYPRTDVGAGSP-NH2)
Effect on reducing food intake [1]: prominent effect | Effect on reducing body weight [1]: prominent effect | pEC50 (human amylin receptors): 10.80 | Changes in characteristics or properties, 0d [2]: Clear | Changes in characteristics or properties, 7d [2]: Clear | Concentration change (7d-0d)/% [2]: No change (a decrease of less than 1% from the initial value to the detected content is denoted as "no change") | Purity Change% (7d-0d) [2]: No change (a decrease of less than 1% from the initial value to the detected content is denoted as "no change")

CC(C)C[C@H](NC(=O)[C@H](CCCNC(=N)N)NC(=O)CNC(=O)[C@H](CC(C)C)NC(=O)[C@@H](NC(=O)[C@H](C)NC(=O)[C@@H](NC(=O)[C@H](CO)NC(=O)[C@H](CC(C)C)NC(=O)[C@H](CCC(N)=O)NC(=O)[C@H](CO)NC(=O)[C@H](C)NC(=O)CC[C@H](NC(=O)CCCCCCCCCCCCCCCCCCC(=O)O)C(=O)O)[C@@H](C)O)C(C)C)C(=O)N[C@@H](CO)C(=O)N[C@@H](CCC(N)=O)C(=O)N[C@@H](CCC(=O)O)C(=O)N[C@@H](CC(C)C)C(=O)N[C@@H](Cc1c[nH]cn1)C(=O)N[C@@H](CCCNC(=N)N)C(=O)N[C@@H](CC(C)C)C(=O)N[C@@H](CCC(N)=O)C(=O)N[C@@H](CC(=O)O)C(=O)N[C@@H](Cc1ccc(O)cc1)C(=O)N1CCC[C@H]1C(=O)N[C@@H](CCCNC(=N)N)C(=O)N[C@H](C(=O)N[C@@H](CC(=O)O)C(=O)N[C@H](C(=O)NCC(=O)N[C@@H](C)C(=O)N[C@@H](CCC(=O)O)C(=O)N[C@@H](CO)C(=O)N1CCC[C@H]1C(N)=O)C(C)C)[C@@H](C)O [M20] ({C20 diacid-γGlu}-ASQLSTAVLGRLSQELHRLQDYPRTDVGAESP-NH2)
Effect on reducing food intake [1]: prominent effect | Effect on reducing body weight [1]: prominent effect | pEC50 (human amylin receptors): 10.77

CC(C)C[C@H](NC(=O)[C@H](CCCNC(=N)N)NC(=O)CNC(=O)[C@H](CC(C)C)NC(=O)[C@@H](NC(=O)[C@H](C)NC(=O)[C@@H](NC(=O)[C@H](CO)NC(=O)[C@H](CC(C)C)NC(=O)[C@H](CCC(N)=O)NC(=O)[C@H](CO)NC(=O)[C@H](C)NC(=O)CC[C@H](NC(=O)CCCCCCCCCCCCCCCCCCC(=O)O)C(=O)O)[C@@H](C)O)C(C)C)C(=O)N[C@@H](CO)C(=O)N[C@@H](CCC(=O)O)C(=O)N[C@@H](CCC(=O)O)C(=O)N[C@@H](CC(C)C)C(=O)N[C@@H](Cc1c[nH]cn1)C(=O)N[C@@H](CCCNC(=N)N)C(=O)N[C@@H](CC(C)C)C(=O)N[C@@H](CCC(N)=O)C(=O)N[C@@H](CC(=O)O)C(=O)N[C@@H](Cc1ccc(O)cc1)C(=O)N1CCC[C@H]1C(=O)N[C@@H](CCCNC(=N)N)C(=O)N[C@H](C(=O)N[C@@H](CC(=O)O)C(=O)N[C@H](C(=O)NCC(=O)N[C@@H](CO)C(=O)NCC(=O)N[C@@H](CO)C(=O)N1CCC[C@H]1C(N)=O)C(C)C)[C@@H](C)O [M9] ({C20 diacid-γGlu}-ASQLSTAVLGRLSEELHRLQDYPRTDVGSGSP-NH2)
Effect on reducing food intake [1]: particularly effective | Effect on reducing body weight [1]: particularly effective | pEC50 (human amylin receptors): 10.77 | Changes in characteristics or properties, 0d [2]: Clear | Changes in characteristics or properties, 7d [2]: Clear | Characteristics or properties on Day 26 [2]: clear solution | Concentration change (7d-0d)/% [2]: No change (a decrease of less than 1% from the initial value to the detected content is denoted as "no change") | Purity Change% (7d-0d) [2]: No change (a decrease of less than 1% from the initial value to the detected content is denoted as "no change")

CC(C)C[C@H](NC(=O)[C@H](CCCNC(=N)N)NC(=O)CNC(=O)[C@H](CC(C)C)NC(=O)[C@@H](NC(=O)[C@H](C)NC(=O)[C@@H](NC(=O)[C@H](CO)NC(=O)[C@H](CC(C)C)NC(=O)[C@H](CCC(N)=O)NC(=O)[C@H](CO)NC(=O)[C@H](C)NC(=O)CC[C@H](NC(=O)CCCCCCCCCCCCCCCCCCC(=O)O)C(=O)O)[C@@H](C)O)C(C)C)C(=O)N[C@@H](CO)C(=O)N[C@@H](CCC(N)=O)C(=O)N[C@@H](CCC(=O)O)C(=O)N[C@@H](CC(C)C)C(=O)N[C@@H](Cc1c[nH]cn1)C(=O)N[C@@H](CCCNC(=N)N)C(=O)N[C@@H](CC(C)C)C(=O)N[C@@H](CCC(=O)O)C(=O)N[C@@H](CC(=O)O)C(=O)N[C@@H](Cc1ccc(O)cc1)C(=O)N1CCC[C@H]1C(=O)N[C@@H](CCCNC(=N)N)C(=O)N[C@H](C(=O)N[C@@H](CC(=O)O)C(=O)N[C@H](C(=O)NCC(=O)N[C@@H](CO)C(=O)NCC(=O)N[C@@H](CO)C(=O)N1CCC[C@H]1C(N)=O)C(C)C)[C@@H](C)O [M13] ({C20 diacid-γGlu}-ASQLSTAVLGRLSQELHRLEDYPRTDVGSGSP-NH2)
Effect on reducing food intake [1]: particularly effective | Effect on reducing body weight [1]: particularly effective | pEC50 (human amylin receptors): 10.77 | Changes in characteristics or properties, 0d [2]: Clear | Changes in characteristics or properties, 7d [2]: Clear | Characteristics or properties on Day 26 [2]: clear solution | Concentration change on Day 26 as compared to Day 0 ([2]; Day 26 vs Day 0): less than 2% | Purity Change% (7d-0d) [2]: No change (a decrease of less than 1% from the initial value to the detected content is denoted as "no change")

CC(C)C[C@H](NC(=O)[C@H](CCCNC(=N)N)NC(=O)CNC(=O)[C@H](CC(C)C)NC(=O)[C@@H](NC(=O)[C@H](C)NC(=O)[C@@H](NC(=O)[C@H](CO)NC(=O)[C@H](CC(C)C)NC(=O)[C@H](CCC(N)=O)NC(=O)[C@H](CO)NC(=O)[C@H](C)NC(=O)CC[C@H](NC(=O)CCCCCCCCCCCCCCCCCCC(=O)O)C(=O)O)[C@@H](C)O)C(C)C)C(=O)N[C@@H](CO)C(=O)N[C@@H](CCC(N)=O)C(=O)N[C@@H](CCC(=O)O)C(=O)N[C@@H](CC(C)C)C(=O)N[C@@H](Cc1c[nH]cn1)C(=O)N[C@@H](CCCNC(=N)N)C(=O)N[C@@H](CC(C)C)C(=O)N[C@@H](CCC(N)=O)C(=O)N[C@@H](CC(=O)O)C(=O)N[C@@H](CC(C)C)C(=O)N1CCC[C@H]1C(=O)N[C@@H](CCCNC(=N)N)C(=O)N[C@H](C(=O)N[C@@H](CC(=O)O)C(=O)N[C@H](C(=O)NCC(=O)N[C@@H](CO)C(=O)NCC(=O)N[C@@H](CO)C(=O)N1CCC[C@H]1C(N)=O)C(C)C)[C@@H](C)O [M18] ({C20 diacid-γGlu}-ASQLSTAVLGRLSQELHRLQDLPRTDVGSGSP-NH2)
Effect on reducing food intake [1]: particularly effective | Effect on reducing body weight [1]: particularly effective
